Measured values reported in patent US20100048545A1, “Compounds and Compositions for Use in the Prevention and Treatment of Disorders of Fat Metabolism and Obesity” (INNODIA INC., priority 2006, published 2010).
“Also recorded” adds a separate entry of the source. Counter-ions that a name gives are not always drawn.

Columns and labels:
[1] = test system: Diet-Induced Obesity (DIO) mouse model; assay: Compound 13e on body weight gain in the Diet-Induced Obesity (DIO) mouse model, 21 days; format: in vivo, C57BL/6 mice
Procedure: The objective of this study was to determine the effect of one analog according to the invention, namely Compound 13e, on body weight gain in the Diet-Induced Obesity (DIO) mouse model.
C57BL/6 mice were received at 7-8 weeks of age and fed a high fat diet (60% of calories from fat) for 8 weeks. Fasted glycemia and body weight values were used to randomize the mice into control and treatment groups (n=8). The average basal glycemia was between 213 and 215 mg/dL for all groups. The animals were treated twice daily by oral gavage with Compound 13e (25 or 50 mg per kg of body weight), and the control group received vehicle (200 mM bicarbonate buffer/0.1% Tween-20™, pH=9) alone. The animals were treated for 21 days. Body weight of the mice was measured on a frequent basis during the treatment. At the end of the study, the epididymal fat pads were isolated and weighed. Data are expressed as mean±SEM of body weight and mean±SEM of fat pad weight.

[2] = test system: C57BL/6 mice fed a high fat diet; assay: Analogs and isomers of 4-hydroxyisoleucine on body weight gain in C57BL/6 mice fed a high fat diet, 3 days; format: in vivo; details: for body weight gain induced by the high fat diet: 100 mg/kg twice daily oral gavage; for efficacy relative to compound 14a: 100 mg/kg twice daily
Procedure: C57BL/6 mice were received at 6-7 weeks of age and fed a standard commercial chow for 1 week (acclimation period). The animals were randomized based on their body weight values, into control and treatment groups (n=6). Then, animals were shifted to a high fat diet (60% of calories from fat) and treated twice daily by oral gavage with 4-hydroxyisoleucine (4-OH, compound 14a) or different analogs and isomers of 4-OH at the dose of 100 mg per kg of body weight for 3 days. The control group (Control HFD) received vehicle (water) alone and a group was kept under standard chow (Control Lean). Body weight of the mice was recorded daily. Two different experiments were run and the effect on body weight gain of selected analogs and isomers according to the invention is presented in FIG. 30A (Experiment 1) and FIG. 30B (Experiment 2).

[3] = test system: obese mice; assay: Compound 22 and 4-hydroxyisoleucine on weight gain of obese mice, 21 days; format: in vivo, C57BL/6 mice
Procedure: The objective of the following study was to evaluate the effect of the lactone form of 4-hydroxyisoleucine (compound 22) on the weight gain of obese mice. 40 C57BL/6 mice were fed a high fat diet (60% of calories from fat) for 6 weeks in order to induce obesity. Animals were than randomized to 5 study groups of 8 mice each according to their body weight values. Thereafter, the animals were treated orally twice daily with either the water vehicle, 50 mg/kg of compound 22, 100 mg/kg of compound 22, 50 mg/kg of 4-hydroxyisoleucine or 100 mg/kg of 4-hydroxyisoleucine. The treatment lasted 21 days and body weight of mice were determined daily from day 1 to day 21 of the study.

[4] = test system: 3T3-L1 pre-adipocytes; assay: Lipid accumulation in 3T3-L1 adipocytes (Oil red O, OD 490 nm); format: cell-based; details: 7 days in differentiation medium, compared to controls
Description: The objective of the study was to evaluate if the compounds of the present invention, and more particularly analogs of 4-Hydroxyisoleucine, can decrease the accumulation of lipids in pre-adipocytes induced to differentiate into functional adipocytes. […] Treating the fibroblasts with a differentiation medium containing insulin, dexamethasone and […] (IBMX) in the presence of serum induces these cells to become terminally differentiated adipocytes. These cells convert to spherical shape and accumulate lipid droplets.
3T3-L1 were cultured in presence of DMEM and 10% FBS for a week in 6-well plates. The medium was than changed to induce differentiation of cells into mature adipocytes. The medium consisted of DMEM, 10% FBS, 0.5 mM IBMX, 0.01 mg/ml insulin and 0.1 μM dexamethasone, with or without compounds of the present invention. The cells were cultured for 7 days and then stained with Oil red 0, a dye which specifically stain lipids. The fat content of treated and untreated cells was quantified by measuring the optical density (OD, 490 nm) with a spectrophotometer.

[5] = test system: Diet Induced Obesity (DIO)-Mice; format: in vivo
Procedure: A total of 40 animals were used in the study. The animals were distributed into 5 groups (4 treated, 1 control group, all on high fat diet). Each group was composed of 8 animals.
4-OH was aliquoted and kept at 4° C. […] Mice from groups 4 and 5 were treated twice daily with 50 and 100 mg/kg of compound 65a. All groups were treated by oral gavage. Treatment commenced on Day 0 and ended on Day 7 (FIG. 37A). Body weights were measured daily.

[6] = test system: DIO-mice
Description: The objective of this study was to evaluate the effect of chronic administration of 4-hydroxyisoleucine (4-OH, compound 14a) and Rosiglitazone, administered alone or in combination, on food consumption and body weight gain of DIO-mice. Both parameters were monitored for 1 week prior to the commencement of treatment, then for the 28 days of treatment and for an additional 7 days post-treatment.
A total of 72 animals were used in the study. The animals were distributed into 6 groups (5 treated, 1 control group, all on high fat diet). Each group was composed of 12 animals. The mice were randomized according to body weight and basal glycemia values following a 5±0.5 hour fasting period.
For the four weeks of treatment, the test articles were dissolved in reverse osmosis water. 4-Hydroxyisoleucine was aliquoted and kept at 4° C. (administration to groups 2, 3, and 6), while Rosiglitazone was freshly prepared daily and kept at 4° C. between the AM and PM administration to groups 4, 5, and 6. Control animals received reverse osmosis water twice daily (group 1). Mice from groups 2 and 3 were treated twice daily with 4-OH at 50 and 100 mg/kg, respectively. Animals from groups 4 and 5 received 1.5 and 5 mg/kg of Rosiglitazone, respectively. […] All groups were treated by oral gavage. Treatment commenced on Day 0 and ended on Day 28 (FIGS. 18A and 18C.
Food consumption was measured and averaged on a weekly basis beginning one week before the start of treatment as shown in FIGS. 18B and 18D as week −1. Similarly, food consumption was monitored for one week after treatment was stopped and is shown as week 5 in FIGS. 18B and 18D, In FIG. 18B, the food consumption over time for various treatment groups is illustrated by the bar graph.

N[C@H](C(=O)O)[C@@H]1CCCC[C@H]1O [Compound 13e, (S)-2-amino-2-((1S,2R)-2-hydroxycyclohexyl)acetic acid]
epididymal fat pad weight ([1]; 25 or 50 mg/kg twice daily): reduction of epididymal fat pad weight | body weight gain (delta of body weight from Day 0) ([1]; 25 or 50 mg/kg twice daily oral gavage): reduction of body weight; also recorded: reduction in body weight gain compared to vehicle treated mice and this effect was dose-dependent

C[C@H]([C@@H](C)O)[C@@H](N)C(=O)O [Compound 14aa, (2R,3S,4R)-4-Hydroxyisoleucine]
body weight gain induced by the high fat diet [2]: reduced body weight gain induced by the high fat diet

CC1C(O)CN[C@@H]1C(=O)O (stereo partly shown) [Compound 22]
body weight ([3]; 100 mg/kg orally twice daily, 21 days, vs water control, p<0.01): significant reduction of body weight compared to the water control group | white fat mass (epididymal fat) ([3]; 100 mg/kg, end of treatment, p<0.01): loss of the white fat mass (epididymal fat) | weight loss relative to 4-hydroxyisoleucine ([3]; same dose level of 100 mg/kg, p<0.05): significantly greater than the weight loss caused by 4-hydroxyisoleucine

CC(C)(C)C(O)CC(N)C(=O)O (stereo not shown) [Compound 62, 2-amino-4-hydroxy-5,5-dimethyl-hexanoic acid]
efficacy relative to compound 14a [2]: greater efficacy than the SRS isomer of 4-OH | body weight gain induced by the high fat diet [2]: reduced body weight gain induced by the high fat diet | lipid accumulation [4]: dose-dependently decreased the lipid accumulation; also recorded: decrease of accumulation of lipids

CC1(O)CC(C(=O)O)NCC1O (stereo not shown) [Compound 65a, 4-methyl-4,5-dihydroxypipecolic acid]
efficacy relative to compound 14a [2]: greater efficacy than the SRS isomer of 4-OH | body weight gain induced by the high fat diet [2]: reduced body weight gain induced by the high fat diet | tolerability of treatment ([5]; 50 and 100 mg/kg twice daily oral gavage, one week): well tolerated | weight gain ([5]; 50 and 100 mg/kg twice daily, first week of treatment): moderation of weight gain was observed | food consumption ([5]; first week of treatment): slight decrease in food consumption

O=C(O)[C@@H]1C[C@H](O)CN1 [Compound 75, cis-4-hydroxyproline]
body weight gain induced by the high fat diet [2]: reduced body weight gain induced by the high fat diet | lipid accumulation [4]: dose-dependently decreased the lipid accumulation; also recorded: decrease of accumulation of lipids

COC(=O)[C@@H]1C[C@H](O)CN1 [Compound 76, cis-4-hydroxyproline methyl ester HCl salt]
body weight gain induced by the high fat diet [2]: reduced body weight gain induced by the high fat diet | lipid accumulation ([4]; HCl salt): dose-dependently decreased the lipid accumulation; also recorded: decrease of accumulation of lipids

CC(=O)N[C@@H]1C(=O)O[C@@H](C)[C@@H]1C [Compound 104]
body weight gain induced by the high fat diet [2]: reduced body weight gain induced by the high fat diet

COC(=O)[C@H]1C[C@@H](O)CN1 [Compound 202]
body weight gain induced by the high fat diet [2]: reduced body weight gain induced by the high fat diet

CN(CCOc1ccc(CC2SC(=O)NC2=O)cc1)c1ccccn1 (stereo not shown) [Rosiglitazone, reference compound]
food consumption ([6]; Rosiglitazone 1.5 mg/kg alone): increase in food consumption | weight ([6]; Rosiglitazone alone, relative to the other groups): significant increase in weight relative to the other groups
